Experimental data: a melting point compilation (Tetko et al.; mined from patent text by program, amines drawn as free bases though some values may be those of a salt)

| Compound | melting point [°C] |
| --- | --- |
| Cc1ccc(Cl)c(C(N)=O)c1N | 149 to 152 |
| CC(C)Oc1cc(NC(=O)C2CCCCN2)c(F)cc1Cl (stereo not drawn) | 96 to 98 |
| O=C1c2ccc([N+](=O)[O-])cc2C(=O)N1C1CCN(Cc2ccccc2)CC1 | 240 to 242 |
| CCCCCC(=O)SC1CCN(C(C(=O)C2CC2)c2ccccc2F)CC1 (stereo not drawn) | 64 to 65 |
| COC(=O)c1ccc2c(c1C)SCCC2(C)C | 63 |
| O=C(Nc1cc(Cl)c([N+](=O)[O-])cc1O)c1ccc(Cl)c(Cl)c1 | 263 to 265 |
| CN1Cc2cccc3c2c(cn3C)S1(=O)=O | 190 |
| Nc1c([N+](=O)[O-])c(C(F)(F)F)nn1-c1c(Cl)cc(C(F)(F)F)cc1Cl | 214 to 215 |
| CCOC(=O)C1(O)C(=O)N2CCOc3cc(Cl)cc1c32 (stereo not drawn) | 186 to 187 |
| ON=Cc1ccc(-c2ccc(O)cc2)c2occc12 | 216 to 217 |
| CCCc1c(O)ccc2c(C)c(CC(=O)OC)c(=O)oc12 | 160 to 162 |
| CC(=O)OC(C(C)C(C)C)C(OC(C)=O)C(C)C1CCC2C3CC(=O)C4CC=CCC4(C)C3CCC12C (stereo not drawn) | 210 to 213 |
| Cc1nn(C)c2nc(N)[nH]c(=O)c2c1=O | > 300 |
| CCCn1c(=O)c2[nH]c(/C=C/c3ccccc3Cl)nc2n(CCC)c1=O | 269 to 270 |
| N#Cc1c(N2CCc3ccccc3CC2)nc(CCO)[nH]c1=O | 184 to 188 |
| CCC(=O)NCC1CC1c1c(Br)ccc2nn(C)cc12 (stereo not drawn) | 119 to 121 |
| CCC(c1cc2c(-c3ccc(C(F)(F)F)n(C)c3=O)c(F)cc(Cl)c2o1)S(C)=O (stereo not drawn) | 125 to 127 |
| CC12CCC(=O)C=C1CCC1C2CCC2(C)C1CC(O)C2NCC(=O)C(F)(F)F (stereo not drawn) | 217 to 220 |
| CC(=O)c1c(C)[nH]c(C2CCCCC2)c1C | 186 to 188 |

| Compound | melting point [°C] |
| --- | --- |
| O=C(CCCc1ccccc1)N[C@H](Cc1ccc(C(F)(F)F)cc1)[C@@H](O)c1ccc(F)cc1 (racemic) | 150 to 151 |
| O=C(O)c1cn(CC2CCCCC2)c2cc(Cl)ccc12 | 170 to 172 |
| CNc1c(NCCSCc2ccc(CN(C)C)o2)c(=O)c1=O | 176 to 178 |
| O=c1c2ccccc2ccn2c(SC(F)(F)F)ccc12 | 137 to 138 |
| N#CC1=CCOc2ccc(F)cc21 | 114 to 115 |
| COc1ccccc1[C@@]1(O)[C@@H]2CNC[C@@H]2C(c2ccccc2)(c2ccccc2)C[C@@H]1O | 230 |
| Cc1ccc(C(=O)c2cnn3c(-c4cccc(N(C)C(=O)C5CC5)c4)ccnc23)cc1 | 189 to 190 |
| O=Cc1cnc2n1CCc1ccccc1C2=C1CCN(CCc2ccc(OCc3ccc4ccccc4n3)cc2)CC1 | 194 |
| Nc1ccccc1NC(=O)c1ccc(NC(=O)CO)cc1 | 221 to 223 |
| O=S(=O)(CC(Cl)C(F)=C(F)F)c1ccccc1 (stereo not drawn) | 45 to 47 |
| CC1=CC(O)C(OC(=O)c2ccccc2)C(C)(C)CC1=O (stereo not drawn) | 99 to 100 |
| CC(=O)Nc1ccc(S(=O)(=O)CCN2CCOCC2)cc1 | 136 to 137 |
| CCC(=C(c1ccccc1)c1ccc(C=CCO)cc1)c1ccccc1 | 80 to 83 |
| CCCCCc1ncc([C@H]2CC[C@H](CCC)CC2)cn1 | 33 |
| CN1CC(=O)NC(=O)N1c1cc(Cl)c(Oc2ccc(S(C)(=O)=O)cc2)c(Cl)c1 | 223 |
| O=C1CCc2c(Cc3ccc(Cl)cc3)cccc21 | 87 to 88 |
| COc1ccc(C2=NN(CCCCCCCCBr)C(=O)[C@H]3CCCC[C@@H]23)cc1OC (relative stereo) | 58 to 60 |
| O=C(COCc1csc(-c2ccc(F)cc2)n1)c1ccccc1 | 104 to 106 |
| O=C(c1ccc(O)cc1)c1c(-c2ccccc2)sc2cc(O)ccc12 | 245 to 246 |

| Compound | melting point [°C] |
| --- | --- |
| CC(C)CC(=O)Nc1ccc(-c2ccncc2)cc1 | 166 to 176 |
| CCCNC(=O)N1C2=NC(C)(C)N(C)C(=O)N2c2ccccc21 | 85 to 87 |
| COc1cc(O)c(C=O)cc1C12CC3CC(CC(C3)C1)C2 | 191 to 193 |
| COC(=O)COc1cccc2c(CCOS(C)(=O)=O)coc12 | 111 |
| O=S1(=O)NCN(CCF)c2cc(F)c(F)cc21 | 128 to 130 |
| CC(C)(C)OC(=O)CC(=O)c1ccco1 | 74 to 75 |
| CCCCc1nc(CC(NC(C)=O)(C(=O)OCC)C(=O)OCC)c[nH]1 | 80 to 92 |
| c1ccc2c(c1)CCc1ccccc1C2Nc1ccncc1 | 263 to 264 |
| O=C(CCc1ccccc1)NC(NC(=S)Nc1cccc([N+](=O)[O-])c1)C(Cl)(Cl)Cl (stereo not drawn) | 171 to 173 |
| COc1ccc2ccccc2c1C1CCN(CCCCNC(=O)c2ccc(-c3ccc(Cl)cc3)cc2)CC1 | 149 |
| N#Cc1cc(F)c(N)c(Br)c1F | 106 to 108 |
| IC12C3C4C5C3C1C5C42 (stereo not drawn) | 32 to 33 |
| CCc1nc2c(cnn2CC)c(NC2CCOCC2)c1CNC(=O)c1cccc(C(=O)NCc2cc(Cl)cc(-c3cccc(C=O)c3)c2)c1 | 123 to 127 |
| COCC(C#N)=Cc1ccc(OC)c(OC)c1 | 82 to 83 |
| Cc1cc(SC(C)C)c(NC(=O)CCCCCSc2nc3c(C)c(Cl)cc(C(C)C)c3o2)c(SC(C)C)n1 | 99 to 101 |
| CCOC(=O)C(=CNc1ccc(F)c(F)c1OCc1ccccc1)C(=O)OCC | 87 |
| CN(C)C=NS(=O)(=O)c1cc(CCNC(=O)C(F)(F)F)ccc1OCC1CCCO1 (stereo not drawn) | 138 to 140 |
| O=C1N(CC2CCCO2)c2c(Cl)cccc2C12COc1cc3c(cc12)CCO3 (stereo not drawn) | 192 to 193 |
| N#Cc1c(N2CCN(C(=O)C3CCCO3)CC2)c2ccccc2n(Cc2ccc(F)cc2)c1=O (stereo not drawn) | 123 to 135 |

Continued, values first:

| melting point [°C] | Compound |
| --- | --- |
| 138 to 142 | CCOCc1nc2c(N)nc3ccccc3c2n1CCCCCS(=O)(=O)N(C)C |
| 199 to 200 | CN1C(=O)CC[C@]2(C)c3ccc(Sc4ccc5cccc([N+](=O)[O-])c5n4)cc3CC[C@@H]12 |
| 168 to 169 | COc1ccc2c(c1)sc1ncc(C=O)n12 |
| 178 to 180 | CC(=O)N(C)c1cccc(S(=O)(=O)c2ccc(N)cc2)c1 |
| 161 to 164 | COc1c(Cl)ccc(-c2cc(N)c(Cl)c(C(=O)NOCc3ccco3)n2)c1F |
| 65 to 66 | CCCCNc1ccc(CCNc2ncnc(CC)c2C(=O)OCC)cc1 |
| 77 to 81 | CN(C)CCCOc1cccc(N(C(=O)c2ccccc2)c2ccccc2)c1 |
| 90 to 91 | COc1nc(Cl)cnc1NC(=O)OCC(C)C |
| 150 to 151 | Cc1cc2c(s1)CCCc1cc(=O)n(-c3ccc(Cl)cc3)nc1-2 |
| 149 to 151 | COC(=O)C1CN(C(=O)c2ccc(OC(F)(F)F)cc2)c2cc(Cl)ccc2CN1S(=O)(=O)c1ccc(OC)cc1 (stereo not drawn) |
| 163 to 165 | CNC(=O)c1ccc(-c2ccc(NC(=O)NCc3cccnc3)cc2)nc1NCCN(C)C |
| 205 | CC(=O)Nc1nc2c(Oc3cc(-c4ccc(C(F)(F)F)cc4)ncn3)cccc2o1 |
| 216 | CS(=O)(=O)c1cc(C(=O)O)cc(NCc2ccco2)c1Cl |
| 174 to 175 | COc1ccc(N2CCN(c3cc(C)c4c(c3C)CC(C)(C)O4)CC2)cc1 |
| 337 to 339 | Cc1cccc2oc(Nc3ccc(CC(=O)O)cc3)nc12 |
| 193 to 195 | Cc1cccc(-c2nc3cccnn3c2-c2ccnc(NC(=O)NC(C)C)c2)c1 |
| 166 to 167 | CCOC(C)n1c(CCc2cccc(O)c2)nc(-c2ccccc2)c1-c1ccccc1 (stereo not drawn) |
| 157 to 159 | COc1ccc2c(c1)C(=O)C(=Cc1cccc([N+](=O)[O-])c1)CO2 |
| 211 | OC1CSC(Oc2cncc(-c3ccc(Cl)nc3)c2)C(O)C1O (stereo not drawn) |
| 275 to 280 | COc1cccc(-c2cc3cnc(N)nc3nc2NC(=O)NC(C)(C)C)c1 |
| 98 to 99 | CCCCOCC(O)COc1ccc(-c2nc(OC)nc(-c3ccc(OCC(O)COCCCC)cc3O)n2)c(O)c1 (stereo not drawn) |

| melting point [°C] | Compound |
| --- | --- |
| 157 to 158 | COc1cccc(-c2cnn(-c3cccc(C(=O)O)c3)c2)c1 |
| 130 to 131 | CCOC(=O)N1CCc2cc(OC)c(OC)cc2C(Oc2ccc(C(F)(F)F)cc2)C1 (stereo not drawn) |
| 172 to 173 | CCC(=O)N(CC)c1cccc(-c2ccc3nnc(NC)n3n2)c1 |
| 228 | O=C(Nc1ncc(C(F)(F)F)o1)C1c2ccccc2Oc2c(F)cccc21 (racemic) |
| 204 to 206 | COC(=O)c1ccc(-c2nsc3nc4ccccc4n23)cc1 |
| 189 to 190 | Cc1c2c(c(C(C)c3ccc(C(C)C)cc3)c(C)c1NC(=O)CC(C)(C)C)OCC2 (stereo not drawn) |
| 114 to 115 | CNC(=O)[C@H]1O[C@@H](n2cnc3c(NCc4cc(Cl)ccc4OCc4ccccc4)ncnc32)[C@H](O)[C@@H]1N |
| 241 | COc1cc(-c2nc(NC(=O)c3cc4cc(C)cc(C)c4n3CC(=O)O)sc2CCC2CCCCC2)c(OC)cc1Cl |
| 167 | N#Cc1ccc(-c2ccc(OC3SCC(O)C(O)C3O)cn2)cn1 (stereo not drawn) |
| 181 to 184 | CCOc1cc(N)c(Cl)cc1C(=O)NCC1CN(Cc2ccccc2Cl)C(C)(C)CO1 (stereo not drawn) |
| 86 to 87 | Clc1cccc(-c2cc(OCC3CO3)no2)c1 (stereo not drawn) |
| 138 | O=C(O)c1nc(-c2ccc(Cl)cc2Cl)n(-c2ccc(Cl)cc2)c1CO |
| 211 to 213 | CC(=O)Nc1ccc2c(c1)cc(C(=O)c1ccc(C)cc1)n2C |
| 190 to 192 | COc1ccc2c(c1O)CCN(C=O)[C@@H]2c1cc(OC)c(OC)c(OC)c1 |
| 102 to 103 | COc1ccc(OCCCCBr)c(C2(SC)Sc3ccccc3N(C)C2=O)c1 (stereo not drawn) |
| 250 to 252 | C[Si](C)(C)C#Cc1cc2ccc(-n3nc4ccc5ccccc5c4n3)cc2oc1=O |
| 132 to 133 | CC(C)(C)c1ccc(CCCCC(O)CC2CCCC2)cc1NC(=O)CC1c2ccccc2Oc2ccccc21 (stereo not drawn) |
| 172 to 173 | COc1cc2c(cc1OC)CCCC(C(=O)N1CCN(C(=S)c3cc(OC)c(OC)c(OC)c3)CC1)=C2 |
| 252 to 255 | CCCc1nc2c(N)nc3ccc(-c4cccc(S(C)(=O)=O)c4)cc3c2s1 |
| 235 to 238 | O=c1c(Cl)c(OCc2ccc(F)cc2F)ccn1Cc1cccc2cnccc12 |
